For one test, the target named is IKZF3 Aiolos (Homo sapiens, UniProt Q96SW2+Q9UKT9). The experiment in a line: Jurkat Cellular Degradation Assay, IKZF3. The settings on record: Jurkat cells, 72 h; for Dmax: human, 100% = complete degradation, 0% = no detectable degradation, read-out: IKZF3 Aiolos max % deg. observed. Also on record: endogenous in cells. It counts as cell-based. The protocol:
Jurkat cells were plated at 80,000 cells/well in 40 μL RPMI+10% FBS in a 384-well cell culture plate prior to using acoustic dispensing technology for adding a compound of interest. Cell cultures were incubated for 72 h at 37° C. and 5% CO2. In order to facilitate analysis, cell cultures were spun down at 200 rpm for 5 min and the supernatant was discarded. After shaking the plate to dislodge the cell pellet, cells were resuspended in 50 μL of Fixation Buffer (eBioscience FoxP3 buffer set 00-5523-00) for 60 min at room temperature. After centrifuging and discarding the supernatant, cells were permeabilized with 50 μL of Permeabilization buffer (eBioscience FoxP3 buffer set 00-5523-00) for 10 min at room temperature. Following permeabilization, cells were spun down and the supernatant was replaced with 20 μL fluorescently labelled antibodies against Helios, Ikaros and Aiolos or corresponding Isotype controls in 1× Permeabilization buffer (Ikaros-Alexa488 [Biolegend, Cat #368408, 1:50], Helios-PE [CST, Cat #29360, 1:50], Aiolos-Alexa647 [Biolegend, Cat #371106 Biolegend, 1:25]) and staining reactions were incubated for 1 h at room temperature while protected from light. Subsequently, 30 μL of 1× Permeabilization buffer was added prior to centrifuging the cells and discarding the supernatant. Stained cells were resuspended in 25 μL of flow cytometry staining buffer [PBS+0.2% bovine serum albumin (BSA)] and analyzed using an Intellicyt Ique Plus flow cytometer.
Table A-1 lists the maximum observed degradation of the IKZF1 protein, IKZF2 protein, and IKZF3 protein as measured in the Jurkat Cellular Degradation assay. The results in Table A-1 were rounded to two digits. In the Jurkat Cellular Degradation assay, a value of 100% indicated no detectable protein remaining or complete degradation of the protein; and a value of 0% indicated no detectable degradation of the protein by the test compound.

The target of the next test is IKZF1 Ikaros (Homo sapiens, UniProt Q13422+Q96SW2). The experiment in a line: Human CD8^+ T Cell Reprogramming Assay, IKZF1. In kind it is cell-based. More on the design: Cryopreserved healthy donor human peripheral blood mononuclear cells (PBMC); endogenous in cells; host or cells: human PBMC from healthy donors (CD8+ T cells by flow cytometry). The settings on record: human PBMC, CD8+ T cells; for Dmax: human, 24 h, read-out: IKZF1 Ikaros Maximum Observed Degradation. The protocol:
Cryopreserved healthy donor human peripheral blood mononuclear cells (PBMC) from healthy donors were thawed and seeded at 500,000 cells/well of 96-well round bottom plates in RPMI 1640 media (Gibco) supplemented with 10% FBS, Pen/Strep (Gibco), MEM-NEAA (Gibco), and sodium pyruvate (Gibco). Cells were treated with titrated doses of compound for 24 hours at 37° C., 5% CO2 before analyzing by flow cytometry.
For flow cytometry staining, cells were washed twice with flow cytometry staining buffer (Thermo Fisher) and incubated in Human Tru-stain Fc block (Biolegend) for 10 minutes before adding eFluor780 viability dye (Thermo Fisher) and surface marker antibody cocktail containing LD-eFluor780, CD3-BUV-395, CD4-BUV805, CD8-FITC, and CD25-BV605 for 30 minutes at 4° C. Cells were then fixed and permeabilized by incubation with permeabilization buffer (eBioscience FoxP3 buffer set 00-5523-00) for 30 minutes at 4° C. as per the kit manufacturer's instructions. Cells were washed twice with the Perm/Wash buffer supplied in the kit as per the manufacturer's instructions and incubated overnight at 4° C. with an intracellular antibody cocktail comprised of antibodies specific for the transcription factors (i.e., Foxp3-BV421, HELIOS-PE-Cy7, EOS-PE, IKAROS-PECF594, AIOLOS-AF647). Cells were washed twice with Perm/Wash buffer and resuspended in flow cytometry staining buffer (Thermo Fisher) prior to acquisition. Sample acquisition and analysis was performed using a BD LSRFortessa (BD Biosciences) flow cytometer. Single-stain controls for each fluorochrome were prepared using UltraComp eBead Compensation Beads (Thermo Fisher). Data were analyzed using FlowJo version 10 and GraphPad Prism Software.
Table D-1 lists the maximum observed degradation of the IKZF1 protein and IKZF3 protein as measured in the Human CD8^+ T Cell Reprogramming assay. The results in Table D-1 were rounded to two digits. In the Human CD8^+ T Cell Reprogramming assay, a value of 100% indicated no detectable protein remaining or complete degradation of the protein; and a value of 0% indicated no detectable degradation of the protein by the test compound.

IKZF1 Ikaros, sequence (Q13422 whole entry): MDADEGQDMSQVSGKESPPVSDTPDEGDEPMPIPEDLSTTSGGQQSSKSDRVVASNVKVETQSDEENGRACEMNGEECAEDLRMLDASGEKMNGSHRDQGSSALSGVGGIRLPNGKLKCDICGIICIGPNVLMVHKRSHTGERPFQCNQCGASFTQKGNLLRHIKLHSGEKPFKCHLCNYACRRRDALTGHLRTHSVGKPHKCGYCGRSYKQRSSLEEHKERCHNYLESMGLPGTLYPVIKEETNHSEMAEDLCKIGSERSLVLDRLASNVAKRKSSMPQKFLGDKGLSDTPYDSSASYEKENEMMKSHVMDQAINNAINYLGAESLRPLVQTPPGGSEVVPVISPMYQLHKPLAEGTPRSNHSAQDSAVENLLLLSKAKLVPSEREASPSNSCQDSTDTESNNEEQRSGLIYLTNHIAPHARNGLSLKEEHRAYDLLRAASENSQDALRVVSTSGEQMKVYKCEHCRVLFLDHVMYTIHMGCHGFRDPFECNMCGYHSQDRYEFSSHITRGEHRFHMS
IKZF1 Ikaros, sequence (Q96SW2 whole entry): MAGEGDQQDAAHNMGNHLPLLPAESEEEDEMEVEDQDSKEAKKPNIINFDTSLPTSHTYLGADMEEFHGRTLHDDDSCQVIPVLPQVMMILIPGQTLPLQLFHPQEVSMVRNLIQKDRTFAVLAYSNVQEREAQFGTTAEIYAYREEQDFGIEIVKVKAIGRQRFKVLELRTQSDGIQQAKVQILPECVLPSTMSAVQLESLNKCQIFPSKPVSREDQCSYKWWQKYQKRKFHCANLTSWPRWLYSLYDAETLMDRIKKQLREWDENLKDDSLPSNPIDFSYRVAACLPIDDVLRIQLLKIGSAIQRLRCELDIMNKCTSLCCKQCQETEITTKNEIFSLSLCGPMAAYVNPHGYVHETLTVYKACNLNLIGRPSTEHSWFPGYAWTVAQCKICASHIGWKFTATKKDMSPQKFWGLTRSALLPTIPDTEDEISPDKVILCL
IKZF1 Ikaros, sequence (Q16531 whole entry partner): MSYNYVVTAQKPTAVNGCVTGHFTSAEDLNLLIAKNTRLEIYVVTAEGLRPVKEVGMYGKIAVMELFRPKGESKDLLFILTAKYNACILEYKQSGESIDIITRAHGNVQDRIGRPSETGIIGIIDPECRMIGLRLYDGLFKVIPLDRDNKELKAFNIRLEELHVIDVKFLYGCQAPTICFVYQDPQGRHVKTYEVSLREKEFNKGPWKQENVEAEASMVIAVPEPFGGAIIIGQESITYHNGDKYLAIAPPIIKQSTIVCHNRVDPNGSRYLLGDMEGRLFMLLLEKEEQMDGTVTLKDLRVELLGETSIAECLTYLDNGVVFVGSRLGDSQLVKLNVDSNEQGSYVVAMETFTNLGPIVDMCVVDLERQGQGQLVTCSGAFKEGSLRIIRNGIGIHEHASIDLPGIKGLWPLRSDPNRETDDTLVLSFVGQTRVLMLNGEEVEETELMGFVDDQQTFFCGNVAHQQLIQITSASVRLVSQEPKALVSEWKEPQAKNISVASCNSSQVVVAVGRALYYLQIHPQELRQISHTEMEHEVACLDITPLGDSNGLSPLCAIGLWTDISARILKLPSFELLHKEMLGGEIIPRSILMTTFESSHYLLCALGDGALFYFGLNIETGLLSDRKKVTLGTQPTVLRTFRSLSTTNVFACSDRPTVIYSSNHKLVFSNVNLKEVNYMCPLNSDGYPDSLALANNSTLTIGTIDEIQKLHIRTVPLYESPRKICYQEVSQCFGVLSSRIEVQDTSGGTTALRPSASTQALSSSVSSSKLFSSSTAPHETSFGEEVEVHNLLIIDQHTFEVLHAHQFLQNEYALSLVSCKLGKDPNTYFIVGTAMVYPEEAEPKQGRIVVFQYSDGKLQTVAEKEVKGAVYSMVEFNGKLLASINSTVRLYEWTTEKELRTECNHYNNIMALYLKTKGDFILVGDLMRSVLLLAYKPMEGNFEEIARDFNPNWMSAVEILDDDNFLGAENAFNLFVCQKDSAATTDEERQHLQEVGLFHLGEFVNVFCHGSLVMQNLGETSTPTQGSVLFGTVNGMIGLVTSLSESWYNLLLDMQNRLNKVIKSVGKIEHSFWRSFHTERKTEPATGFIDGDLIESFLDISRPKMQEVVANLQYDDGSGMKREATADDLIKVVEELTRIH
IKZF3 Aiolos, sequence (Q9UKT9 whole entry): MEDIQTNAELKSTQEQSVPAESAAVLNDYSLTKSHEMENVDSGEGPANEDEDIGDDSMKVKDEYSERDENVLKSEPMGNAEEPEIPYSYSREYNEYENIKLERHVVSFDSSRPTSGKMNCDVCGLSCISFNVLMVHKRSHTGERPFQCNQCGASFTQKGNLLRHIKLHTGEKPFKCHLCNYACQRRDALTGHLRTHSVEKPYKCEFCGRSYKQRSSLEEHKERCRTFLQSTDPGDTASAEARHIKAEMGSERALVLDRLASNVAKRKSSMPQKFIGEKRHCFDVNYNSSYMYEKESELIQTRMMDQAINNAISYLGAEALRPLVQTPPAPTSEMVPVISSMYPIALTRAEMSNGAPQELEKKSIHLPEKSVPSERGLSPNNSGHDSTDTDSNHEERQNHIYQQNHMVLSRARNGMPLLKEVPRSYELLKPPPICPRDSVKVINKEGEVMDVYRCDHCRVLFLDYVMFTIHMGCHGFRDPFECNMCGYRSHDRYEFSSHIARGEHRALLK
IKZF3 Aiolos, sequence (Q96SW2 whole entry): as the sequence (Q96SW2 whole entry) above
IKZF3 Aiolos, sequence (Q16531 whole entry partner): as the sequence (Q16531 whole entry partner) above

Take `O=C1CCC(n2cc(-c3ccccc3)oc2=O)C(=O)N1` (stereo not drawn) [Comparative Compound A, 3-(2-oxo-5-phenyloxazol-3(2H)-yl)piperidine-2,6-dione]: the results for the Dmax on IKZF3 Aiolos and at IKZF1 Ikaros (100% = complete degradation) were 46% and 74%, respectively.
The matching figures for `O=C1CCC(n2cc(-c3ccc(Br)cc3F)oc2=O)C(=O)N1` (stereo not drawn) [Comparative Compound B, 3-(5-(4-bromo-2-fluorophenyl)-2-oxooxazol-3(2H)-yl)piperidine-2,6-dione]: 15% and 17%.
On to `Cc1cc(-c2ccc(-c3cn(C4CCC(=O)NC4=O)c(=O)o3)c(F)c2)nc(N)c1OC(F)F` (stereo not drawn) [Example 1, 3-(5-(4-(6-Amino-5-(difluoromethoxy)-4-methylpyridin-2-yl)-2-fluorophenyl)-2-oxooxazol-3(2H)-yl)piperidine-2,6-dione], for which the DC50 on IKZF3 Aiolos (concentration reducing protein level by 50% vs DMSO) was 9.01 µM; at IKZF1 Ikaros (24 hours, concentration reducing protein level by 50% vs DMSO) it was 0.064 to 0.094 µM. The figures for the Dmax on IKZF3 Aiolos and on IKZF1 Ikaros (100% = complete degradation) were 52% and 68 to 69%, respectively. For the same compound, the “IKZF1 Ikaros Maximum Observed Degradation” value at IKZF1 Ikaros (24 hours, 100% = complete degradation, 1440 min) is on record as 69%.

These data come from patent US20260327216A1, “SUBSTITUTED OXAZOLONE COMPOUND FOR DECREASING LEVELS OF IKZF I-4 PROTEINS” (BRISTOL-MYERS SQUIBB COMPANY, priority 2023, published 2026).
